Source: article PMC7662226, “Discovery of Novel Indolealkylpiperazine Derivatives as Potent 5-HT1A Receptor Agonists for the Potential Future Treatment of Depression” (Molecules, 2020)

What was measured:
Assay type in all cases: cell-based
human 5-HT1AR = target: T1, human 5-HT1AR (Homo sapiens, UniProt P08908); assay: Ultra Lance cAMP assay, 5-HT1AR; details: agonistic functional activity, human 5-HT1AR expressed by HEK-293 cells; NA: no activity
T1 construct: expressed in transfected cells; host or cells: HEK-293
T1 sequence (P08908 1-422): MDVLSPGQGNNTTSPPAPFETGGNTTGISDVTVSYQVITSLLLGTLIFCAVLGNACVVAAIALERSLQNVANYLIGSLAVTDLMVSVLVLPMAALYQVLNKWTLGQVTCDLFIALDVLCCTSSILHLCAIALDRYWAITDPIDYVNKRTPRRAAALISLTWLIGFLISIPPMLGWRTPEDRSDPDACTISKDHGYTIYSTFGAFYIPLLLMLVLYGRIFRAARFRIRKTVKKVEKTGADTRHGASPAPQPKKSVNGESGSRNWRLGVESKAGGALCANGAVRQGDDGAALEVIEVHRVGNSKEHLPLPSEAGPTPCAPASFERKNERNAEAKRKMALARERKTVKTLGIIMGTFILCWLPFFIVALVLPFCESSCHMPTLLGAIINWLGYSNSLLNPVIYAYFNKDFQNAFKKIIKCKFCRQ
Method: (§1) 1.2 Biological Evaluation
(§2) 1.2.1. Ultra Lance cAMP assay
(§3) The Ultra Lance cAMP assay was performed to evaluate the function of synthesized compounds to D2R and 5-HT1AR with human D2R and 5-HT1AR expressed by HEK-293 cells.
(§4) […] The IC50 values were calculated by nonlinear regression using a sigmoidal function.

human 5-HT2AR = target: T2, human 5-HT2AR (Homo sapiens, UniProt P28223); assay: Fluorometric Imaging Plate Reader (FLIPR) assay, 5-HT2AR; details: functional activity, calcium flux, human 5-HT2AR expressed by CHO-K1 cells; NA: no activity
T2 construct: expressed in transfected cells; host or cells: CHO-K1
Method: 1.2.2. Fluorometric Imaging Plate Reader (FLIPR) assay
The FLIPR assay was performed to evaluate the function of synthesized compounds to 5-HT2AR with human 5-HT2AR expressed by CHO-K1 cells. Reference compound for 5-HT2AR was […]
[…] After 15 min add 22.5 µl /well of inducer and calcium flux signal is measured. The IC50 values were calculated by nonlinear regression using a sigmoidal function.

human D2R = target: T3, human D2R (Homo sapiens, UniProt P14416); assay: Ultra Lance cAMP assay, D2R; details: functional activity, human D2R expressed by HEK-293 cells; NA: no activity
T3 construct: expressed in transfected cells; host or cells: HEK-293
Method: as §1, §2, §3, §4

T3 sequence (P14416 whole entry): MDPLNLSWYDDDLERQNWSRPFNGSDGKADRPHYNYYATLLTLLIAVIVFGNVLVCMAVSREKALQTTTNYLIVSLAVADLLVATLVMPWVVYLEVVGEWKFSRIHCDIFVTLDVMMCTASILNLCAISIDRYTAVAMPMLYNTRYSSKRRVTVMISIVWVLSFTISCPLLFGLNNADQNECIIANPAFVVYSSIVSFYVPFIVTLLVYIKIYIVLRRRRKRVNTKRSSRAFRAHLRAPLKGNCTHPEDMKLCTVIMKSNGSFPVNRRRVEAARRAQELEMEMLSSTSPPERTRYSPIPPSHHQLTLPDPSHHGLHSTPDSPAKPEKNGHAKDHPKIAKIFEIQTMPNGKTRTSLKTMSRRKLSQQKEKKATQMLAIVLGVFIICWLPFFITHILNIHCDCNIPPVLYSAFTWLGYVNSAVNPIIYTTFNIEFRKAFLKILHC
T2 sequence (P28223 whole entry): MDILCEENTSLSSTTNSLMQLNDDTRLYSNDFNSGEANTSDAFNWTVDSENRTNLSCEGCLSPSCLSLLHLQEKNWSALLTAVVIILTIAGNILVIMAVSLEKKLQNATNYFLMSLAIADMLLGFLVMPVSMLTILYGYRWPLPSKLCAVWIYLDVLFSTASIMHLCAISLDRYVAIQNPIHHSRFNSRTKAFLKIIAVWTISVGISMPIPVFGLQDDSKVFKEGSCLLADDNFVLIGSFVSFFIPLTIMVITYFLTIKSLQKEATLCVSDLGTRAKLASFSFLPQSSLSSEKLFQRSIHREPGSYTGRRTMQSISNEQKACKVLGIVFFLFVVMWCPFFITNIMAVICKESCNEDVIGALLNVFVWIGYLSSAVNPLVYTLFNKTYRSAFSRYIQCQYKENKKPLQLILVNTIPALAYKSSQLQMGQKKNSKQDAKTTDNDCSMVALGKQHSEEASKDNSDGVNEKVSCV

**Q.** CS(=O)(=O)c1ccc(F)c(C(=O)N2CCN(CCCc3c[nH]c4ccc(C#N)cc34)CC2)c1 [Compound 13a] was tested. Which EC50 (human 5-HT1AR) did it give?
**A.** Its EC50 is 168 nM.

**Q.** And the IC50 (human 5-HT2AR)?
**A.** Its IC50 is over 5000 nM.

**Q.** Which EC50 (human 5-HT1AR) does the source give for CS(=O)(=O)c1ccc(N2CCOCC2)c(C(=O)N2CCN(CCCc3c[nH]c4ccc(C#N)cc34)CC2)c1 [Compound 13b] here?
**A.** Its EC50 is 990 nM.

**Q.** CC(Oc1ccc(S(C)(=O)=O)cc1C(=O)N1CCN(CCCc2c[nH]c3ccc(C#N)cc23)CC1)C(F)(F)F (centres unmarked) [Compound 13c] was tested. Which EC50 (human 5-HT1AR) did it give?
**A.** Its EC50 is 197 nM.

**Q.** And the IC50 (human 5-HT2AR)?
**A.** The IC50 was 1140 nM.

**Q.** How did the EC50 (human 5-HT1AR) turn out when CS(=O)(=O)c1ccc(OCC2CC2)c(C(=O)N2CCN(CCCc3c[nH]c4ccc(C#N)cc34)CC2)c1 [Compound 13d] was run?
**A.** Its EC50 is 88 nM.

**Q.** What about the IC50 (human 5-HT2AR) of the same molecule?
**A.** Its IC50 is 887 nM.

**Q.** Which IC50 (human D2R) does the source give for CCS(=O)(=O)c1ccc(OCC2CC2)c(C(=O)N2CCN(CCCc3c[nH]c4ccc(C#N)cc34)CC2)c1 [Compound 13e] here?
**A.** The IC50 was over 5000 nM.

**Q.** What about the EC50 (human 5-HT1AR) of the same molecule?
**A.** Its EC50 is 49.2 nM.

**Q.** And the IC50 (human 5-HT2AR)?
**A.** The IC50 was 1290 nM.

**Q.** How did the EC50 (human 5-HT1AR) turn out when CNS(=O)(=O)c1ccc(OCC2CC2)c(C(=O)N2CCN(CCCc3c[nH]c4ccc(C#N)cc34)CC2)c1 [Compound 13f] was run?
**A.** Its EC50 is 23.6 nM.

**Q.** And the IC50 (human 5-HT2AR)?
**A.** Its IC50 is 1100 nM.

**Q.** For N#Cc1ccc2[nH]cc(CCCN3CCN(C(=O)c4cc(S(=O)(=O)NCC5CC5)ccc4OCC4CC4)CC3)c2c1 [Compound 13g], which IC50 (human D2R) is on record?
**A.** The IC50 was 4310 nM.

**Q.** And the EC50 (human 5-HT1AR)?
**A.** Its EC50 is 5.35 nM.

**Q.** And the IC50 (human 5-HT2AR)?
**A.** Its IC50 is 2280 nM.

**Q.** CNS(=O)(=O)c1ccc(OCC(C)C)c(C(=O)N2CCN(CCCc3c[nH]c4ccc(C#N)cc34)CC2)c1 [Compound 13h] was tested. Which EC50 (human 5-HT1AR) did it give?
**A.** Its EC50 is 5.67 nM.

**Q.** What about the IC50 (human 5-HT2AR) of the same molecule?
**A.** The IC50 was 567 nM.

**Q.** CNS(=O)(=O)c1ccc(OCC2COC2)c(C(=O)N2CCN(CCCc3c[nH]c4ccc(C#N)cc34)CC2)c1 [Compound 13i] was tested. Which EC50 (human 5-HT1AR) did it give?
**A.** Its EC50 is 400 nM.

**Q.** And the IC50 (human 5-HT2AR)?
**A.** The IC50 was 4190 nM.

**Q.** Which “5-HT1AR EC50” value (human 5-HT1AR) does the source give for CNS(=O)(=O)c1ccc(OC(C)C)c(C(=O)N2CCN(CCCc3c[nH]c4ccc(C#N)cc34)CC2)c1 [Compound 13j] here?
**A.** Its value is “completely lose activity”.

**Q.** CCOc1ccc(S(=O)(=O)NC)cc1C(=O)N1CCN(CCCc2c[nH]c3ccc(C#N)cc23)CC1 [Compound 13k] was tested. Which EC50 (human 5-HT1AR) did it give?
**A.** Its EC50 is 77.5 nM.

**Q.** And the IC50 (human 5-HT2AR)?
**A.** Its IC50 is 1780 nM.

**Q.** Which EC50 (human 5-HT1AR) does the source give for CNS(=O)(=O)c1ccc(OC2COC2)c(C(=O)N2CCN(CCCc3c[nH]c4ccc(C#N)cc34)CC2)c1 [Compound 13l] here?
**A.** The EC50 was 524 nM.

**Q.** What does the source list for CC(C)COc1ccc(S(=O)(=O)NCC2CC2)cc1C(=O)N1CCN(CCCc2c[nH]c3ccc(C#N)cc23)CC1 [Compound 13m]?
**A.** IC50 (human D2R): > 5000 nM; EC50 (human 5-HT1AR): 1.01 nM; IC50 (human 5-HT2AR): 1530 nM

**Q.** How did the EC50 (human 5-HT1AR) turn out when N#Cc1ccc2[nH]cc(CCCN3CCN(C(=O)c4cc(S(=O)(=O)NCC5CC5)ccc4OCC4COC4)CC3)c2c1 [Compound 13n] was run?
**A.** The EC50 was 31.6 nM.

**Q.** What about the IC50 (human 5-HT2AR) of the same molecule?
**A.** The IC50 was over 5000 nM.

**Q.** With CC(C)Oc1ccc(S(=O)(=O)NCC2CC2)cc1C(=O)N1CCN(CCCc2c[nH]c3ccc(C#N)cc23)CC1 [Compound 13o, 3-(4-(3-(5-cyano-1H-indol-3-yl)propyl)piperazine-1-carbonyl)-N-(cyclopropylmethyl)-4-isopropoxybenzenesulfonamide] as the molecule, how does the EC50 (human 5-HT1AR) read?
**A.** Its EC50 is 22.8 nM.

**Q.** CCOc1ccc(S(=O)(=O)NCC2CC2)cc1C(=O)N1CCN(CCCc2c[nH]c3ccc(C#N)cc23)CC1 [Compound 13p, 3-(4-(3-(5-cyano-1H-indol-3-yl)propyl)piperazine-1-carbonyl)-N-(cyclopropylmethyl)-4-ethoxybenzenesulfonamide] was tested. Which EC50 (human 5-HT1AR) did it give?
**A.** The EC50 was 48.2 nM.

**Q.** What about the IC50 (human 5-HT2AR) of the same molecule?
**A.** The IC50 was 4730 nM.

**Q.** N#Cc1ccc2[nH]cc(CCCN3CCN(C(=O)c4cc(S(=O)(=O)NCC5CC5)ccc4OC4COC4)CC3)c2c1 [Compound 13q, 3-(4-(3-(5-cyano-1H-indol-3-yl)propyl)piperazine-1-carbonyl)-N-(cyclopropylmethyl)-4-(oxetan-3-yloxy)benzenesulfonamide] was tested. Which EC50 (human 5-HT1AR) did it give?
**A.** Its EC50 is 175 nM.
